Reference: US8299267B2, “(3-hydroxy-4-amino-butan-2-yl) -3- (2-thiazol-2-yl-pyrrolidine-1-carbonyl) benzamide derivatives and related compounds as beta-secretase inhibitors for treating” (CoMentis, Inc., priority 2007, dated 2012)

Molecular target: memapsin 2 (Homo sapiens, UniProt P56817)
Experiment: Inhibition of memapsin 2 beta-secretase activity toward fluorogenic substrate FS-2
Type: biochemical
Settings: memapsin 2, pH 4, 37° C., 20 minutes pre-incubation, substrate FS-2; read-out: M2Ki
Experimental: Potency of compounds were determined by measurement of their inhibition of memapsin 2 activity toward a fluorescent substrate. Kinetic inhibition experiments were performed using the procedure as described in Ermolieff, et al. (Biochemistry 39:12450-12456 (2000), the teachings of which are incorporated hereby in their entirety). Briefly, assays were performed at pH 4, 37° C., by pre-incubation of memapsin 2 enzyme with compound for 20 minutes. Activity measurements were initiated by addition of a fluorogenic substrate FS-2 (Bachem Americas, Torrance, Calif.) MCA-SEVNLDAEFK-DNP (SEQ ID NO.: 2). The substrate was derived from 10 amino acids of the human amyloid precursor protein (APP), with the Swedish variant amino acids at the beta-secretase cleavage site. The terminal amino acid was modified from arginine to lysine to facilitate derivatization with a functional group for detection by autofluorescence. The amino acid sequence of the “core” peptide of the substrate is SEVNLDAEFK (SEQ ID NO.: 3). The amino terminus was derivatized with (7-methoxycoumarin-4-yl)acetyl (MCA), and the epsilon amine of the lysine side chain of the terminal residue (K in sequence SEVNLDAEFK (SEQ ID NO.: 4)) was derivatized with 2,4-dinitrophenyl (DNP).

Chain of memapsin 2 (P56817 46-501): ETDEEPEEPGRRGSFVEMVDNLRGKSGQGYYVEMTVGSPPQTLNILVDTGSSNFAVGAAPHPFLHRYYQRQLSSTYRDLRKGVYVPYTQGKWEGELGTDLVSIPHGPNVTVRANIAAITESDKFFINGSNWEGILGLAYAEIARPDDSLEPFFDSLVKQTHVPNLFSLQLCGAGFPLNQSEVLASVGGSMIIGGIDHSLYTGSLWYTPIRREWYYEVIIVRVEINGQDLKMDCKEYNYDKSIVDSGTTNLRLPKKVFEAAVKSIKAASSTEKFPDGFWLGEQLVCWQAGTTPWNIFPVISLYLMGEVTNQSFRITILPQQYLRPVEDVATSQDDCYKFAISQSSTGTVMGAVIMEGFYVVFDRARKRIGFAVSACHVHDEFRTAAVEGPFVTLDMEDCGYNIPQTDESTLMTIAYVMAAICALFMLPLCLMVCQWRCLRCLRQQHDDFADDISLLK

Row | Ki [µM] | Compound
1 | < 0.1 | Cc1cc(C(=O)N[C@@H](Cc2ccccc2)[C@H](O)CNCc2cncc(C(C)(F)F)c2)cc(C(=O)N2CCC[C@@H]2c2nc(C)co2)c1 [Compound 113, N-((2S,3R)-4-((5-(1,1-difluoroethyl)pyridin-3-yl)methylamino)-3-hydroxy-1-phenylbutan-2-yl)-3-methyl-5-((R)-2-(4-methyloxazol-2-yl)pyrrolidine-1-carbonyl)benzamide]
2 | < 0.1 | Cc1csc([C@H]2CCCN2C(=O)c2cc(C(=O)N[C@@H](Cc3ccccc3)[C@H](O)CNCc3cncc(C(C)(C)F)c3)cc(N(C)C)c2)n1 [Compound 36, 3-(dimethylamino)-N-((2S,3R)-4-((5-(2-fluoropropan-2-yl)pyridin-3-yl)methylamino)-3-hydroxy-1-phenylbutan-2-yl)-5-((R)-2-(4-methylthiazol-2-yl)pyrrolidine-1-carbonyl)benzamide]
3 | > 0.201 | COc1cccc(CNC[C@@H](O)[C@H](Cc2ccccc2)NC(=O)c2cccc(C(=O)N3CS(=O)(=O)C[C@@H]3c3nc(C)cs3)c2)c1 [Compound 13, N-((2S,3R)-3-hydroxy-4-(3-methoxybenzylamino)-1-phenylbutan-2-yl)-3-((R)-4-(4-methylthiazol-2-yl)thiazolidine-S-dioxide-3-carbonyl)benzamide]
4 | < 0.1 | Cc1coc([C@H]2CCCN2C(=O)c2cccc(C(=O)N[C@@H](Cc3ccccc3)[C@H](O)CNCc3cccc(OC(F)(F)F)c3)c2)n1 [Compound 114, N-((2S,3R)-3-hydroxy-1-phenyl-4-(3-(trifluoromethoxy)benzylamino)butan-2-yl)-3-((R)-2-(4-methyloxazol-2-yl)pyrrolidine-1-carbonyl)benzamide]
5 | > 0.201 | Cc1csc(CNC[C@@H](O)[C@H](Cc2ccccc2)NC(=O)c2cccc(C(=O)N3CCC[C@@H]3c3nc(C)cs3)c2)n1 [Compound 67, N-((2S,3R)-3-hydroxy-4-((4-methylthiazol-2-yl)methylamino)-1-phenylbutan-2-yl)-3-((R)-2-(4-methylthiazol-2-yl)pyrrolidine-1-carbonyl)benzamide]
6 | > 0.201 | Cc1cc(C(=O)N[C@@H](Cc2ccccc2)[C@H](O)CNCc2cc3ccccc3o2)cc(C(=O)N2CCC[C@@H]2c2nc(C)cs2)c1 [Compound 97, N-((2S,3R)-4-(benzofuran-2-ylmethylamino)-3-hydroxy-1-phenylbutan-2-yl)-3-methyl-5-((R)-2-(4-methylthiazol-2-yl)pyrrolidine-1-carbonyl)benzamide]
7 | < 0.1 | Cc1csc([C@H]2CCCN2C(=O)c2cccc(C(=O)N[C@@H](Cc3ccccc3)[C@H](O)CNCc3cc(C(C)C)no3)c2)n1 [Compound 99, N-((2S,3R)-3-hydroxy-4-((3-isopropylisoxazol-5-yl)methylamino)-1-phenylbutan-2-yl)-3-((R)-2-(4-methylthiazol-2-yl)pyrrolidine-1-carbonyl)benzamide]
8 | < 0.1 | C=C(C)c1cccc(CNC[C@@H](O)[C@H](Cc2ccccc2)NC(=O)c2cc(C)cc(C(=O)N3CCC[C@@H]3c3nc(C)co3)c2)c1 [Compound 108, N-((2S,3R)-3-hydroxy-1-phenyl-4-(3-(prop-1-en-2-yl)benzylamino)butan-2-yl)-3-methyl-5-((R)-2-(4-methyloxazol-2-yl)pyrrolidine-1-carbonyl)benzamide]
9 | > 0.201 | COc1cccc(CNC[C@@H](O)[C@H](Cc2ccccc2)NC(=O)c2cccc(C(=O)N3C[C@H](OC)C[C@@H]3c3nc(C)cs3)c2)c1 [Compound 7, N-((2S,3R)-3-hydroxy-4-(3-methoxybenzylamino)-1-phenylbutan-2-yl)-3-((2R,4R)-4-methoxy-2-(4-methylthiazol-2-yl)pyrrolidine-1-carbonyl)benzamide]
10 | < 0.1 | Cc1cc(C(=O)N[C@@H](Cc2ccccc2)[C@H](O)CNCc2cncc(C(C)(F)F)c2)cc(C(=O)N2CCC[C@@H]2c2nc(C)cs2)c1 [Compound 116, N-((2S,3R)-4-((5-(1,1-difluoroethyl)pyridin-3-yl)methylamino)-3-hydroxy-1-phenylbutan-2-yl)-3-methyl-5-((R)-2-(4-methylthiazol-2-yl)pyrrolidine-1-carbonyl)benzamide]
11 | < 0.1 | Cc1csc([C@H]2CCCN2C(=O)c2cc(C(=O)N[C@@H](Cc3ccccc3)[C@H](O)CNCc3cncc(C(C)(C)F)c3)cc(C(F)F)c2)n1 [Compound 58, 3-(difluoromethyl)-N-((2S,3R)-4-((5-(2-fluoropropan-2-yl)pyridin-3-yl)methylamino)-3-hydroxy-1-phenylbutan-2-yl)-5-((R)-2-(4-methylthiazol-2-yl)pyrrolidine-1-carbonyl)benzamide]
12 | > 0.201 | Cc1coc([C@H]2CCCN2C(=O)c2cccc(C(=O)N[C@@H](Cc3ccccc3)[C@H](O)CNC3CCCCC3)c2)n1 [Compound 107, N-((2S,3R)-4-(cyclohexylamino)-3-hydroxy-1-phenylbutan-2-yl)-3-((R)-2-(4-methyloxazol-2-yl)pyrrolidine-1-carbonyl)benzamide]
13 | < 0.1 | Cc1coc([C@H]2CCCN2C(=O)c2cccc(C(=O)N[C@@H](Cc3ccccc3)[C@H](O)CNCc3cncc(C(C)(C)C)c3)c2)n1 [Compound 111, N-((2S,3R)-4-((5-tert-butylpyridin-3-yl)methylamino)-3-hydroxy-1-phenylbutan-2-yl)-3-((R)-2-(4-methyloxazol-2-yl)pyrrolidine-1-carbonyl)benzamide]
14 | < 0.1 | COc1cc(C(=O)N[C@@H](Cc2ccccc2)[C@H](O)CNCc2cc(Cl)cc(Cl)c2)cc(C(=O)N2CCC[C@@H]2c2nc(C)cs2)c1 [Compound 54, N-((2S,3R)-4-(3,5-dichlorobenzylamino)-3-hydroxy-1-phenylbutan-2-yl)-3-methoxy-5-((R)-2-(4-methylthiazol-2-yl)pyrrolidine-1-carbonyl)benzamide]
15 | < 0.1 | Cc1cc(C(=O)N[C@@H](Cc2ccccc2)[C@H](O)CNCc2cncc(C(C)(C)C)c2)cc(C(=O)N2CCC[C@@H]2c2nc(C)co2)c1 [Compound 112, N-((2S,3R)-4-((5-tert-butylpyridin-3-yl)methylamino)-3-hydroxy-1-phenylbutan-2-yl)-3-methyl-5-((R)-2-(4-methyloxazol-2-yl)pyrrolidine-1-carbonyl)benzamide]
16 | > 0.201 | COc1cccc(CNC[C@@H](O)[C@H](Cc2ccccc2)NC(=O)c2cccc(C(=O)N3CCC[C@H]3c3nc(C)cs3)c2)c1 [Compound 4, N-((2S,3R)-3-hydroxy-4-(3-methoxybenzylamino)-1-phenylbutan-2-yl)-3-((S)-2-(4-methylthiazol-2-yl)pyrrolidine-1-carbonyl)benzamide]
17 | < 0.1 | Cc1coc([C@H]2CCCN2C(=O)c2cncc(C(=O)N[C@@H](Cc3ccccc3)[C@H](O)CNCc3cccc(C(F)(F)F)c3)c2)n1 [Compound 72, N-((2S,3R)-3-hydroxy-1-phenyl-4-(3-(trifluoromethyl)benzylamino)butan-2-yl)-5-((R)-2-(4-methyloxazol-2-yl)pyrrolidine-1-carbonyl)nicotinamide]
18 | < 0.1 | Cc1cc(C(=O)N[C@@H](Cc2ccccc2)[C@H](O)CNCc2cccc(OC(F)(F)F)c2)cc(C(=O)N2CCC[C@@H]2c2nc(C)co2)c1 [Compound 115, N-((2S,3R)-3-hydroxy-1-phenyl-4-(3-(trifluoromethoxy)benzylamino)butan-2-yl)-3-methyl-5-((R)-2-(4-methyloxazol-2-yl)pyrrolidine-1-carbonyl)benzamide]
19 | < 0.1 | Cc1csc([C@H]2CCCN2C(=O)c2cc(C(=O)N[C@@H](Cc3ccccc3)[C@H](O)CNCc3cccc(C(F)(F)F)c3)nc(N(C)C)n2)n1 [Compound 100, 2-(dimethylamino)-N-((2S,3R)-3-hydroxy-1-phenyl-4-(3-(trifluoromethyl)benzylamino)butan-2-yl)-6-((R)-2-(4-methylthiazol-2-yl)pyrrolidine-1-carbonyl)pyrimidine-4-carboxamide]
20 | < 0.1 | Cc1csc([C@H]2CCCN2C(=O)c2cc(C(=O)N[C@@H](Cc3ccccc3)[C@H](O)CNCc3cccc(C(F)(F)F)c3)cc(N(C)C)n2)n1 [Compound 98, 2-(dimethylamino)-N-((2S,3R)-3-hydroxy-1-phenyl-4-(3-(trifluoromethyl)benzylamino)butan-2-yl)-6-((R)-2-(4-methylthiazol-2-yl)pyrrolidine-1-carbonyl)isonicotinamide]
21 | < 0.1 | Cc1csc([C@H]2CCCN2C(=O)c2cc(C(=O)N[C@@H](Cc3ccccc3)[C@H](O)CNCc3cncc(C(C)C)c3)cc(C(F)F)c2)n1 [Compound 62, 3-(difluoromethyl)-N-((2S,3R)-3-hydroxy-4-((5-isopropylpyridin-3-yl)methylamino)-1-phenylbutan-2-yl)-5-((R)-2-(4-methylthiazol-2-yl)pyrrolidine-1-carbonyl)benzamide]
22 | < 0.1 | Cc1cc(C(=O)N2CCC[C@@H]2c2nc(C)co2)cc(C(=O)N[C@@H](Cc2ccccc2)[C@H](O)CNCc2cccc(C(F)(F)F)c2)n1 [Compound 96, N-((2S,3R)-3-hydroxy-1-phenyl-4-(3-(trifluoromethyl)benzylamino)butan-2-yl)-6-methyl-4-((R)-2-(4-methyloxazol-2-yl)pyrrolidine-1-carbonyl)picolinamide]
23 | 0.101 to 0.2 | CCn1cc(CNC[C@@H](O)[C@H](Cc2ccccc2)NC(=O)c2cccc(C(=O)N3CCC[C@@H]3c3nc(C)co3)c2)cn1 [Compound 109, N-((2S,3R)-4-((1-ethyl-1H-pyrazol-4-yl)methylamino)-3-hydroxy-1-phenylbutan-2-yl)-3-((R)-2-(4-methyloxazol-2-yl)pyrrolidine-1-carbonyl)benzamide]
